The values below come from paper PMC11844072, “Novel 5,6-dichlorobenzimidazole derivatives as dual BRAFWT and BRAFV600E inhibitors: design, synthesis, anti-cancer activity and molecular dynamics simulations” (BMC Chemistry, 2025).

The test system of one test is K-562. Nature of the test: NCI 60 single concentration growth inhibition. Type of test: cell-based, human. Conditions: for inhibition at 10 µM: Homo sapiens, K562, K-562, Leukemia, read-out: GI%. As for the experimental part:
(§1) The synthesized dichlorobenzimidazoles 10a–p were assayed for their influence on divers cancer cell lines according to the method presented in the Additional file A.
(§2) 5. Screening of cytotoxic activity against a panel of sixty human tumor cell lines
(§3) The selected compounds by NCI were evaluated for their anticancer activity in a two-stage process. First, these compounds were screened against the full NCI 60 cell lines panel at a single high dose of 10 µM. Then, the output from the single dose screen is reported as a mean graph. […]
(§4) Assay protocol. The human tumor cell lines of the cancer screening panel are grown in RPMI 1640 medium containing 5% fetal bovine serum and 2 mM L-glutamine. For a typical screening experiment, cells are inoculated into 96 well microtiter plates in 100 µL at plating densities ranging from 5000 to 40,000 cells/well depending on the doubling time of individual cell lines. After cell inoculation, the microtiter plates are incubated at 37 °C, 5% CO 2, 95% air and 100% relative humidity for 24 h prior to addition of the experimental drugs.
(§5) After 24 h, two plates of each cell line are fixed in situ with TCA, to represent a measurement of the cell population for each cell line at the time of drug addition (Tz). The experimental drugs are solubilized in dimethyl sulfoxide at 400-fold the desired final maximum test concentration and stored frozen prior to use. At the time of drug addition, an aliquot of frozen concentrate is thawed and diluted to twice the desired final maximum test concentration with complete medium containing 50 µg/mL gentamicin. Additional four, 10-fold or ½ log serial dilutions are made to provide a total of five drug concentrations plus control.
(§6) Aliquots of […] of these different drug dilutions are added to the appropriate microtiter wells already containing […] of medium, resulting in the required final drug concentrations.
(§7) Following drug addition, the plates are incubated for an additional 48 h at 37 °C, 5% CO 2, 95% air, and 100% relative humidity. For adherent cells, the assay is terminated by the addition of cold TCA.
(§8) Cells are fixed in situ by the gentle addition of 50 µL of cold 50% (w/v) TCA (final concentration, 10% TCA) and incubated for 60 min at 4 °C. The supernatant is discarded, and the plates are washed five times with tap water and air dried. Sulforhodamine B (SRB) solution ([…]) at 0.4% (w/v) in 1% acetic acid is added to each well, and plates are incubated for 10 min at room temperature. After staining, unbound dye is removed by washing five times with 1% acetic acid and the plates are air dried. Bound stain is subsequently solubilized with 10 mM trizma base, and the absorbance is read on an automated plate reader at a wavelength of 515 nm. For suspension cells, the methodology is […]
(§9) the same except that the assay is terminated by fixing settled cells at the bottom of the wells by gently adding 50 µl of 80% TCA (final concentration, 16% TCA). Using the seven absorbance measurements [time zero, (Tz), control growth, (C), and test growth in the presence of drug at the five concentration levels (Ti)], the percentage growth is calculated at each of the drug concentrations […]
(§10) Percentage growth inhibition is calculated as: [(Ti Tz)/(C–Tz)] x 100 for concentrations for which Ti>/=Tz and [(Ti-Tz)/Tz] x 100 for concentrations for which Ti < Tz. […]
(§11) Results for each compound were reported as a mean graph of the percent growth of the treated cells when compared to the untreated control cells. There after obtaining the results for one dose assay, analysis of historical Development Therapeutics Programme (DTP) was performed and compounds which satisfies predetermined threshold inhibition criteria is selected for NCI full panel 5 dose assay.

The next test has as its system DU-145. Nature of the test: NCI 60 single concentration growth inhibition. Type of test: cell-based, human. Conditions: DU-145, Prostate cancer; for inhibition at 10 µM: Homo sapiens, read-out: GI%. As to the method: as §1, §2, §3, §4, §5, §6, §7, §8, §9, §10, §11
A further test relates to NCI-H460. Nature of the test: NCI 60 single concentration growth inhibition. Type of test: cell-based, human. Conditions: NCI-H460, Non-small cell lung cancer; for inhibition at 10 µM: Homo sapiens, read-out: GI%. As to the method: as §1, §2, §3, §4, §5, §6, §7, §8, §9, §10, §11
The next test relates to OVCAR-3. Nature of the test: NCI 60 single concentration growth inhibition. Conditions: OVCAR-3, Ovarian cancer; for inhibition at 10 µM: Homo sapiens, read-out: GI%. Type of test: cell-based, human. As for the experimental part: as §1, §2, §3, §4, §5, §6, §7, §8, §9, §10, §11
The next test relates to HT29. Kind of test: NCI 60 single concentration growth inhibition. Type of test: cell-based, human. Conditions: for inhibition at 10 µM: Homo sapiens, HT-29, HT29, Colon cancer, read-out: GI%. As for the experimental part:
as §1, §2, §3, §4, §5, §6, §7, §8, §9, §10, §11

A further test concerns SW-620. Kind of test: NCI 60 single concentration growth inhibition. Type of test: cell-based, human. Conditions: SW-620, Colon cancer; for inhibition at 10 µM: Homo sapiens, read-out: GI%. As for the experimental part:
as §1, §2, §3, §4, §5, §6, §7, §8, §9, §10, §11

In another test the test system is HCT-15. Nature of the test: NCI 60 single concentration growth inhibition. It counts as cell-based, human. Conditions: HCT-15, Colon cancer; for inhibition at 10 µM: Homo sapiens, read-out: GI%. As to the method:
as §1, §2, §3, §4, §5, §6, §7, §8, §9, §10, §11

Another test has as its system LOX IMVIL. Nature of the test: NCI 60 single concentration growth inhibition. It counts as cell-based, human. Conditions: Melanoma; for inhibition at 10 µM: Homo sapiens, read-out: GI%. As for the experimental part: as §1, §2, §3, §4, §5, §6, §7, §8, §9, §10, §11
The subject of a further test is HCC-2998. Kind of test: NCI 60 single concentration growth inhibition. Conditions: HCC-2998, Colon cancer; for inhibition at 10 µM: Homo sapiens, read-out: GI%. It counts as cell-based, human. As to the method: as §1, §2, §3, §4, §5, §6, §7, §8, §9, §10, §11
Another test has as its system COLO 205. Nature of the test: NCI 60 single concentration growth inhibition. It counts as cell-based, human. Conditions: COLO 205, Colon cancer; for inhibition at 10 µM: Homo sapiens, read-out: GI%. As for the experimental part: as §1, §2, §3, §4, §5, §6, §7, §8, §9, §10, §11
Another test has as its system NCI/ADR-RES. Nature of the test: NCI 60 single concentration growth inhibition. Type of test: cell-based, human. Conditions: Ovarian cancer; for inhibition at 10 µM: Homo sapiens, read-out: GI%. As for the experimental part:
as §1, §2, §3, §4, §5, §6, §7, §8, §9, §10, §11

The test system of the next test is HOP-92. Kind of test: NCI 60 single concentration growth inhibition. Type of test: cell-based, human. Conditions: HOP-92, Non-small cell lung cancer; for inhibition at 10 µM: Homo sapiens, read-out: GI%. As for the experimental part:
as §1, §2, §3, §4, §5, §6, §7, §8, §9, §10, §11

For the next test, the system named is U251. Kind of test: NCI 60 single concentration growth inhibition. It counts as cell-based, human. Conditions: for inhibition at 10 µM: Homo sapiens, U-251, U251, CNS cancer, read-out: GI%. As to the method: as §1, §2, §3, §4, §5, §6, §7, §8, §9, §10, §11
A further test deals with TK-10. Kind of test: NCI 60 single concentration growth inhibition. Type of test: cell-based, human. Conditions: TK-10, Renal cancer; for inhibition at 10 µM: Homo sapiens, read-out: GI%. As to the method:
as §1, §2, §3, §4, §5, §6, §7, §8, §9, §10, §11

In another test the test system is OVCAR-4. Kind of test: NCI 60 single concentration growth inhibition. It counts as cell-based, human. Conditions: OVCAR-4, Ovarian cancer; for inhibition at 10 µM: Homo sapiens, read-out: GI%. As for the experimental part:
as §1, §2, §3, §4, §5, §6, §7, §8, §9, §10, §11

The test system of another test is SNB-19. Kind of test: NCI 60 single concentration growth inhibition. It counts as cell-based, human. Conditions: SNB-19, CNS cancer; for inhibition at 10 µM: Homo sapiens, read-out: GI%. As for the experimental part:
as §1, §2, §3, §4, §5, §6, §7, §8, §9, §10, §11

A further test has as its system NCI-H522. Nature of the test: NCI 60 single concentration growth inhibition. Conditions: NCI-H522, Non-small cell lung cancer; for inhibition at 10 µM: Homo sapiens, read-out: GI%. It counts as cell-based, human. As for the experimental part:
as §1, §2, §3, §4, §5, §6, §7, §8, §9, §10, §11

In test [1] the test system is NCI 60 cancer cell line panel. Kind of test: NCI 60 single concentration growth inhibition, panel mean. Type of test: cell-based. Conditions: Homo sapiens, mean over NCI 60 panel, read-out: Mean GI%. As to the method: as §1, §2, §3
at five different minimal concentrations.
as §4, §5, §6, §7, §8, §9
Percentage growth inhibition is calculated as: [(Ti Tz)/(C–Tz)] x 100 for concentrations for which Ti>/=Tz and [(Ti-Tz)/Tz] x 100 for concentrations for which Ti < Tz.
Three dose response parameters are calculated for each experimental agent. Growth […]
concentration resulting in a 50% reduction in the net protein increase (as measured by SRB staining) in control cells during the drug incubation. The drug concentration resulting in total growth inhibition (TGI) is calculated from Ti = Tz. […]
reduction in the measured protein at the end of the drug treatment as compared to that at the beginning) indicating a net loss of cells following treatment is calculated from [(Ti–Tz)/Tz] x 100 =
_50. Values are calculated for each of these three parameters if the level of activity is reached; […]

As to “3-(4-((2-(2-(5,6-Dichloro-2-(4-methoxyphenyl)-1H-benzo[d]imidazol-1-yl)acetyl)hydrazono)methyl)phenoxy)propanoic acid [Compound 10i]”, the GI% with K-562 (K-562, Leukemia, 10 μM) was 10.25%; in the test on DU-145 (10 μM) it was “– (GI% < 5%)”; in the test on NCI-H460 (10 μM), “– (GI% < 5%)”; with OVCAR-3 (10 μM), “– (GI% < 5%)”; with HT29 (HT29, Colon cancer, 10 μM), “– (GI% < 5%)”; with SW-620 (10 μM), “– (GI% < 5%)”. For the same compound, the GI% is recorded as 21.36% with HCT-15 (10 μM); 10.92% in the test with LOX IMVIL (10 μM); “– (GI% < 5%)” in the test with HCC-2998 (10 μM); “– (GI% < 5%)” in the test on COLO 205 (10 μM); “– (GI% < 5%)” with NCI/ADR-RES (10 μM); 6.61% in the test with HOP-92 (10 μM). The GI% with U251 (U251, CNS cancer, 10 μM) is given as 7.22%; in the test with TK-10 (10 μM), “– (GI% < 5%)”; with OVCAR-4 (10 μM), “– (GI% < 5%)”; in the test with SNB-19 (10 μM), 5.79%; in the test with NCI-H522 (10 μM), 10.42%.
Take `COc1ccc(-c2nc3cc(Cl)c(Cl)cc3n2CC(=O)NN=Cc2cccc(O)c2)cc1` [Compound 10a, 2-(5,6-Dichloro-2-(4-methoxyphenyl)-1H-benzo[d]imidazol-1-yl)-N'-(3-hydroxybenzylidene)acetohydrazide]: the inhibition at 10 µM with K-562 was determined as 66%; in the test with DU-145, 44.2%; in the test on NCI-H460, 46.8%; with OVCAR-3, 36.6%; with HT29, 41.2%; in the test on SW-620, 31.7%. The inhibition at 10 µM in the test on HCT-15 was 60%; with LOX IMVIL it was 29%; in the test on HCC-2998, 35.9%; with COLO 205 it was 46%; in the test with NCI/ADR-RES, 44.5%; in the test with HOP-92 it was 23.8%. For the same compound, the inhibition at 10 µM in the test on U251 is 39.3%; in the test with TK-10, 37.2%; in the test on OVCAR-4, 68.1%; in the test with SNB-19, 50.4%; in the test with NCI-H522 it was 30%; in test [1], 46.9%.
Regarding `COc1ccc(-c2nc3cc(Cl)c(Cl)cc3n2CC(=O)NN=Cc2ccc(O)cc2)cc1` [Compound 10b, 2-(5,6-Dichloro-2-(4-methoxyphenyl)-1H-benzo[d]imidazol-1-yl)-N'-(4-hydroxybenzylidene)acetohydrazide], the inhibition at 10 µM was found to be 47.5% with K-562; 30.8% in the test with DU-145; 49.7% in the test on NCI-H460; 27% with OVCAR-3; 25.1% in the test on HT29; 18.6% with SW-620. Also, the inhibition at 10 µM was 52.3% with HCT-15; 42.6% with LOX IMVIL; 21.4% in the test with HCC-2998; 9.38% in the test on COLO 205; 28.5% in the test with NCI/ADR-RES; 40% in the test on HOP-92. The inhibition at 10 µM turned out to be 42.8% in the test on U251; 13.9% in the test with TK-10; 52.8% in the test on OVCAR-4; 39% in the test on SNB-19; 21.8% with NCI-H522; 38.5% in [1].
